# Laboratory results: PubChem BioAssay AID1645867 (Buhrlage Lab, Dana-Farber Cancer Institute and Novartis …, 2021)
# The source made the active and inactive calls. How the calls were made is not given here.
# Biological target: Ubiquitin carboxyl-terminal hydrolase isozyme L1 (Homo sapiens) (UniProt P09936)
# Assay: biochemical concentration-response of UCH-L1 DUB inhibitors, hit verification (AID 1645867)
# Details: recombinant UCHL1 deubiquitinase activity assay
# Ubiquitin carboxyl-terminal hydrolase isozyme L1 (Homo sapiens), sequence (P09936 whole entry, looked up): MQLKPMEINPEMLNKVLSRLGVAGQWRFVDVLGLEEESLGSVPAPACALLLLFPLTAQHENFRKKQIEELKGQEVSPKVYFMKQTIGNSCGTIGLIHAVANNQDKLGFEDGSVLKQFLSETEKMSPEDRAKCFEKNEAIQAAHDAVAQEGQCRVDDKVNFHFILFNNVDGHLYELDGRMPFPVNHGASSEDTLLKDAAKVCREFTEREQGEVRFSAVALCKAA
row,Compound,IC50
1,COc1ccc(OC)c2c(C)cc(N3CC(C)CC(C)C3)nc12 (stereo unspecified),> 25 µM (inactive)
2,O=[N+]([O-])c1ccc(S(=O)(=O)CC2CSc3nc4ccccc4n32)cc1 (stereo unspecified),> 25 µM (inactive)
3,Cc1ccc(Cn2c(=O)c(C#N)c3n(c2=O)CCC3)cc1,> 25 µM (inactive)
4,O=C(COc1ccc(N2CC(C(=O)NCc3ccc4c(c3)OCO4)CC2=O)cc1)Nc1ccc(F)cc1 (stereo unspecified),> 25 µM (inactive)
5,O=C(c1ccc(Cl)cc1)N(c1ccccn1)C1CCCCC1,> 25 µM (inactive)
6,Cc1cccc(CCN2C(=O)CCc3c(C)nc(C4CCCNC4)nc32)c1 (stereo unspecified),> 25 µM (inactive)
7,O=C(CN1CCOCC1)Nc1ccc(NC(=O)c2ccc(Cl)cc2)cc1,> 25 µM (inactive)
8,COc1ccc(-c2nc(CNC(=O)c3ccccc3C)cs2)cc1,> 25 µM (inactive)
9,Cc1ccc(-n2cc(C(=O)NCCCc3ccccc3)nn2)cc1,> 25 µM (inactive)
10,O=c1ccc(-c2cc3ccccc3o2)cn1Cc1ccccc1-c1ccccc1,12.7 µM
11,COc1ccc(CCN2COc3c(cc(Cl)c4cccnc34)C2)cc1OC,> 25 µM (inactive)
12,O=C1CC(c2nc3ccccc3n2CCOc2ccccc2)CN1Cc1ccccc1 (stereo unspecified),> 25 µM (inactive)
13,CC(c1ccccc1)N1CC(O)=C(c2nc3ccccc3s2)C1=N (stereo unspecified),> 25 µM (inactive)
14,O=c1oc2ccccc2cc1-c1nc(-c2ccc(Oc3ccccc3)cc2)cs1,> 25 µM (inactive)
15,COc1ccc(Cl)cc1NC(=O)CSc1ncnc2nc[nH]c12,> 25 µM (inactive)
16,COC(=O)Nc1cccn(Cc2c(Cl)cccc2Cl)c1=O,> 25 µM (inactive)
17,CCCCCC(O)c1c(O)cc2c(c1O)C(=O)c1c(O)cc(O)cc1C2=O (stereo unspecified),> 25 µM (inactive)
18,Cc1cc2nc(N3CCN(C(=O)c4ccccc4)CC3)c3ccccc3n2n1,> 25 µM (inactive)
19,COc1cccc2cc(C(=O)Nc3nc(-c4ccncc4)cs3)oc12,> 25 µM (inactive)
20,Cc1nc(-c2ccccc2)n(Cc2ccc(F)cc2)c(=O)c1CCO,> 25 µM (inactive)
21,CC1(C)Cc2nc(N3CCCC3)c(C#N)cc2CS1,> 25 µM (inactive)
22,O=C(CSc1ccc2nnc(-c3cccc(F)c3)n2n1)N1CCCc2ccccc21,> 25 µM (inactive)
23,O=C(Nc1ccc(C(F)(F)F)cc1)C1CC(=O)N(c2ccc3c(c2)OCCO3)C1 (stereo unspecified),> 25 µM (inactive)

row,Compound,IC50
1,Cn1c(=O)c2ncnnc2n(C)c1=O,16.3 µM
2,Cc1ccc(NC(=O)Cn2cc(C(=O)c3ccccc3)c(=O)c3cc(C)ccc32)cc1,> 25 µM (inactive)
3,Cc1c(Cl)ccc2sc(N3CCN(C(=O)c4ccn(C)n4)CC3)nc12,> 25 µM (inactive)
4,O=c1c2cc(-c3ccccc3)nn2ccn1Cc1noc(CN2CCCCC2)n1,> 25 µM (inactive)
5,Cc1ccc(-n2c(=O)[nH]c3c(C(N)=O)nc(-c4ccc(OCc5ccccc5)cc4)nc32)cc1,> 25 µM (inactive)
6,Cc1nn(-c2ccc(Cl)cc2)c2[nH]c(=O)c(CNc3ccc4c(c3)OCCO4)cc12,> 25 µM (inactive)
7,COc1ccc(CNC(=O)Nc2cccc3ccccc23)cc1,> 25 µM (inactive)
8,O=C(CCSc1nnnn1-c1ccccc1)Nc1cc(C(F)(F)F)ccc1Cl,> 25 µM (inactive)
9,O=C(COC(=O)c1cnccn1)Nc1ccc(Cl)cc1C(=O)c1ccccc1,> 25 µM (inactive)
10,N#Cc1ccc(COC(=O)C(O)(c2ccccc2)c2ccccc2)cc1,> 25 µM (inactive)
11,CC(C)c1ccc(C2CC(=O)c3cn[nH]c3C2)cc1 (stereo unspecified),> 25 µM (inactive)
12,Cc1ccc(C(=O)c2cn(CC(=O)Nc3ccc4c(c3)OCO4)c3ccccc3c2=O)cc1,> 25 µM (inactive)
13,COc1ccc(OC)c(C2=NO[C@]3(C(=O)Nc4ccccc43)[C@H]2C(=O)c2ccc(OC)c(OC)c2)c1,> 25 µM (inactive)
14,O=C(Nc1cccc(-c2nc3cnccc3o2)c1)c1ccc(Br)o1,> 25 µM (inactive)
15,COc1ccc2c(C)c(CC(=O)N3CCC[C@H]3C(=O)O)c(=O)oc2c1C,> 25 µM (inactive)
16,COc1ccc(-c2cc3nc([C@H](C)NC(=O)Cc4cc(F)ccc4F)nn3cn2)cc1,> 25 µM (inactive)
17,CCCC1(c2ccccc2)NC(=O)N(Cc2ccc(Cl)cc2)C1=O (stereo unspecified),> 25 µM (inactive)
18,O=C1CC(c2ccco2)Cc2[nH]c(=O)c(-c3nc(-c4ccc(Cl)cc4)cs3)cc21 (stereo unspecified),> 25 µM (inactive)
19,Cc1ccc(NC(=O)Cc2nnc3cc(-c4nc(C)no4)ccn23)cc1,> 25 µM (inactive)
20,COc1ccccc1OCCSc1nnc(-c2ccc3c(c2)OCCCO3)n1C,> 25 µM (inactive)
21,CSc1cccc(NC(=O)C2C3C=CC4(O3)C2C(=O)N(C2CCCCCC2)C4C(=O)NC2CCCCC2)c1 (stereo unspecified),> 25 µM (inactive)
22,Cc1ccc(/C=C/C(=O)c2oc3ccc(F)cc3c2C)cc1,> 25 µM (inactive)
23,CC(=O)NS(=O)(=O)c1ccc(NC(=O)/C=C/c2cn(-c3ccccc3)nc2-c2ccccc2)cc1,> 25 µM (inactive)
